Here are results for four compounds from US8207222B2, “Nitric oxide releasing derivatives of paracetamol” (Council of Scientific and Industrial Research, priority 2007, dated 2012).

Data set [1] has as its system SGPT/ALT. The data set is described as follows: plasma marker of liver injury SGPT/ALT, spectrophotometric kit. It is filed as in vivo. The settings on record: 1000 mg/kg, 6 hr after administration, vs basal value, mean ± SEM. As to the method: (§1) Biochemical Assays (Table 3 and FIG. 2 Sheet No. 1 for SGPT(ALT), and Table 4 and FIG. 3 Sheet No. 2 for ALP): Paracetamol was given at a dose of 1000 mg/Kg and an equivalent dose of 1000 mg/Kg of the derivatives 12 and 13 was given p.o. Before administration blood samples of each animal were taken and after 6 hrs the animals were sacrificed to collect blood samples, and the serum was separated out. Measurement of plasma markers of liver Serum Glutamate oxaloacetate transaminase (SGOT) pyruvate transaminase (SGPT) and Alkaline Phosphatase (ALP) were assayed spectrophotometrically using commercially available kits.
(§2) The animals were divided into different groups containing 6-8 animals in each group. Animals were lightly anaesthetized with diethyl ether and blood samples were collected which served as the basal reading of the enzyme to be analyzed. These groups of rats were then treated with paracetamol (1000 mg/Kg, i.p.), and equivalent dose of the test compounds. Control group was treated with an equal volume of vehicle (0.9% w/v sodium chloride containing 20% v/v tween-80). Animals were lightly anesthetized with ethyl ether and blood samples were collected and allowed to coagulate at room temperature for 1 hr, serum was then separated by centrifugation (5,000 rpm for 10 min) at 4° C. and stored at −40.0° C. till estimation. Plasma markers of liver injury were assayed spectrophotometrically using following commercially available kits according to standard laboratory techniques:
(§3) […]. Enzymes like alkaline phosphatase (ALP, EC 3.1.3.1), serum glutamate pyruvate transaminase (SGPT) or alanine aminotransferase (ALT) ([…]) and the total proteins are considered as plasma markers of liver injury. Nitric oxide releasing paracetamol derivatives 12 and 13 were evaluated for their effect on the markers of liver injury like enzymes ALP and SGPT/ALT. The plasma level of these enzymes is found to increase in the case of liver toxicity.

The subject of data set [2] is carrageenan induced rat paw edema. In words: carrageenan induced rat paw edema model (anti-inflammatory activity). It is filed as in vivo, Wistar rats. The settings on record: 100 mg/kg p.o.; for % Increase in paw volume Mean ± SEM 2 hr: 2 hr after carrageenan challenge; for anti-inflammatory activity (in words): 2 hr and 4 hr; for % Increase in paw volume Mean ± SEM 4 hr: 4 hr after carrageenan challenge. An excerpt:
Animals: Wistar rats (male 150-200 g) of both sex and Laca mice (male, 25-35 g) procured from Central Animal House, Punjab University, Chandigarh, India were used. Animals were housed under standard laboratory conditions and maintained on rat chow, Animals were allowed free access to food and water until used and fasted 24 hr prior to studies.
Experimental conditions: Unless otherwise stated, the following conditions were employed in all experiments. The test compounds were suspended in 0.5% carboxymethylcellulose (CMC) and administered per orally (p.o.). Control animals were given the corresponding amount of vehicle (0.5%, CMC).
Anti-inflammatory activity (Table 1): Anti-inflammatory activity was determined by using carrageenan induced rat paw edema model. Rats were divided into different groups and the drugs were administered to each group.
Paw edema in rats (various modifications and various irritants) is the most widely used method for testing acute and subacute inflammation. It is based upon the ability of anti-inflammatory agents to inhibit the edema produced in the hind paw of the rat after injection of a phlogistic agent. Many phlogistic agents (irritants) have been used, such as brewer's yeast, formaldehyde, dextran, egg albumin, kaolin, sulfated polysaccharides like carrageenin or naphthoylheparamine. The volume of the injected paw is measured before and after application of the irritant and the paw volume of the treated animals is compared to the control. The details of the experiment carried out are described below:
The paracetamol (1) and synthesized NO-releasing derivatives (12 and 13) were administered p.o. at a dose of 100 mg/kg, p.o., emulsified in 0.5% sodium carboxy methyl cellulose (0.5% sodium CMC). Anti-inflammatory activity was determined by using carrageenan induced rat paw edema model. Rats were divided into different groups and the drugs/derivatives were administered to each group. Acute edema was induced in left hind paw of rats by injecting freshly prepared solution of carrageenan (Type IV, 0.1 ml, 1%) under plantar region of left hind paw. In the right paw, saline ([…], 0.9%) was injected, which served as control for comparison. The increase in paw volume was measured by using plethysmometer (water displacement, UGO BASILE, Varese, Italy) at 2 hr and 4 hr after carrageenan challenge. Percentage change (increase) in paw volume was calculated and expressed as the amount of inflammation. % increase in paw volume at any time=(V1−Vr)/Vr×100
Where, V1 Volume of left paw • Vr=Volume of right paw (control)
In general terms: Carrageenan injected into the paw causes an acute inflammation.

Data set [3] concerns liver. In words: liver histopathology (haematoxylin and eosin). It is filed as in vivo, mouse. The settings on record: 1000 mg/kg, i.p.; H&E stain.
From the text: Histopathology (FIG. 5 Sheet No. 3) For liver histopathology, the livers were removed and portions were fixed in 10% buffered formalin (pH 7.4). They were then processed by standard histopathological techniques, stained with Haematoxylin and Eosin (H&E), and examined for morphologic evaluation for liver injury.^21
Data set [4] concerns the target T1, cox-2 (ovine) (Ovis aries, UniProt P79208).
T1 construct: purchased Cayman Chemical Company, USA
T1 sequence (P79208 17-603): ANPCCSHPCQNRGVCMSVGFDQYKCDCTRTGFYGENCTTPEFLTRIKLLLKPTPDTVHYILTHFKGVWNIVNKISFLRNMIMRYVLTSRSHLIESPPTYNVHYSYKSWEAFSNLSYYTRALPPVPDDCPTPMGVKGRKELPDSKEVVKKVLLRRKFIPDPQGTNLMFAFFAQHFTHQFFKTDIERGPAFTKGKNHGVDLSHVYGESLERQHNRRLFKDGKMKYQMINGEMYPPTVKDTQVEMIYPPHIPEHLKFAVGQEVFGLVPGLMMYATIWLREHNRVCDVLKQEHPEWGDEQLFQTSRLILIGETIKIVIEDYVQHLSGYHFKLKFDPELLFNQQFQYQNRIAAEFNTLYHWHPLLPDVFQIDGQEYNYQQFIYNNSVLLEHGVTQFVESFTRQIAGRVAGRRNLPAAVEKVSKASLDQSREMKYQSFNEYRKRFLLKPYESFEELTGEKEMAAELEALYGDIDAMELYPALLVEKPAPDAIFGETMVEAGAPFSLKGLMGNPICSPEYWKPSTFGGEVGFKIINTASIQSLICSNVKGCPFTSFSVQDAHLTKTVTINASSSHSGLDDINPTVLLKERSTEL
In words: In vitro cox-2 (ovine) inhibitory assay. It is filed as biochemical. The conditions noted are these: prostaglandin quantified by EIA, concentration not given. An excerpt:
In vitro cox-2 (ovine) inhibitory assay: The prostaglandin product is quantified via enzyme immunoassay (EIA) using a broadly specific antibody that binds to all major prostaglandin compounds. Assay kit was purchased from Cayman Chemical Company, USA.

Data set [5] concerns acetic acid induced writhing. The data set is described as follows: acetic acid induced writhing assay (analgesic activity). It is filed as in vivo, Laca mice. The conditions noted are these: 100 mg/kg p.o., 30 min prior to i.p. acetic acid, mean ± SEM. As to the method: Animals: Wistar rats (male 150-200 g) of both sex and Laca mice (male, 25-35 g) procured from Central Animal House, Punjab University, Chandigarh, India were used. Animals were housed under standard laboratory conditions and maintained on rat chow, Animals were allowed free access to food and water until used and fasted 24 hr prior to studies. Analgesic activity (Table 2 and FIG. 1 Sheet No. 1 FIG. 3): Analgesic activity was determined by using abdominal writhing assay. Mice were divided into different groups containing 6 animals in each group. Pain can be induced by injection of irritants into the peritoneal cavity of mice. The animals react with a characteristic stretching behaviour which is called writhing. An irritating agent such as phenylquinone or acetic acid can be injected intraperitoneally to mice and the stretching reaction is evaluated. The most commonly used methods for measuring peripheral analgesic activity are the writhing tests in mice. The details of the experiment carried out are mentioned below: Analgesic activity was determined against acetic acid induced writhing assay. Writhing was induced by intraperitoneal (i.p.) injection of freshly prepared acetic acid solution. Mice were per orally (p.o.) administered paracetamol (1) and synthesized NO-releasing derivatives (12 and 13) at a dose of 100 mg/kg, emulsified in 0.5% sodium carboxy methyl cellulose (sodium CMC) vehicle, 30 min prior to i.p. acetic acid (1% w/v in saline pH 2.7, 10 ml/kg, i.p.). Animals were immediately transferred to individual observation chambers and number of writhes (constriction of abdomen, turning of trunk, and extension of hind Limbs) were monitored over the following 20 minutes, beginning 3 min after the injection of acetic acid. At the end of observation period the animals were killed by cervical dislocation and exsaguination. The average number of writhes in each group of drug treated mice was compared with that of the control group and degree of analgesia was expressed as % inhibition calculated from the equation: % Inhibition=(1−Nt/Nc)×100 Where, Nc=number of writhes in control • Nt=number of writhes in drug treated mice
A general note: An intraperitoneal irritant provokes the stretching counted in writhing tests.

Data set [6] relates to ALP. It is filed as in vivo. The conditions noted are these: 1000 mg/kg; 6 hr after administration, vs basal value; mean ± SEM. As to the method:
as §1, §2, §3

Data set [7] can be described thus: in vivo nitric oxide release, serum nitrate/nitrite by Cayman kit. The conditions noted are these: for NO serum level: dose of 100 mg/kg body weight, control 182.1±0.68, in µmol/L; for serum nitrate/nitrite concentration: 6 hours after 100 mg/Kg p.o., control 182.1 ± 0.68. On the procedure:
100 mg/Kg of the derivatives 12 and 13 was given p.o. After 6 hours the animals were sacrificed to collect blood samples and the serum was separated out to find out the levels of NO. Plasma nitrate/nitrite concentration level was measured by commercially available Cayman Kit.

Where “and” joins values, the source holds several entries; their conditions need not be identical. Equal values may be shown once. Entries after “also recorded” stand apart in the source; their conditions may differ. Marks after values point to notes of the source that are not given here.

With `CC(=O)Nc1ccc(O)cc1` [Compound 1, N-(4-hydroxyphenyl)-acetamide, reference compound], the “% INCREASE IN SGPT/ALT LEVEL” value in data set [1] (listed as Paracetamol (1)) was 83.11 ± 3.3 %; in data set [1] (listed as paracetamol (1)) it was “more than 80%”. In addition, the “% Increase in paw volume Mean ± SEM 2 hr” value in data set [2] stood at 38.37 ± 1.26%; in data set [2] (listed as paracetamol), 38.37±1.26%; in data set [2] (listed as paracetamol (1)), 38.37±1.26%. Also, in data set [2], the “anti-inflammatory activity (in words)” value was “No significant activity”. For the same compound, the “% Increase in paw volume Mean ± SEM 4 hr” value in data set [2] came out at 58.92 ± 1.56%; in data set [2] (listed as paracetamol) it was 58.92±1.56%; in data set [2] (listed as paracetamol (1)), 58.92±1.56%. Moreover, the “liver damage in histopathology (light microscopy)” value (from here on “liver damage in histopathology”) in data set [3] is “ballooning degeneration, sinusoidal decongestion, portal triad inflammation and spoty necrosis in Zone I”. Further, the “cox-2 (ovine) inhibition” value in data set [4] amounted to 24.0%. The entries for the “% INHIBITION IN WRITHINGS” value in data set [5] and in data set [5] (listed as paracetamol (1)) were 45.36 ± 1.34% and 45.36±1.34%, respectively. Besides, the “% INCREASE IN ALP LEVEL” value in data set [6] is listed as 15.75 ± 1.07 %.

As usually defined, the melting point is the temperature of the solid-liquid transition. In turn, `CC(=O)Nc1ccc(OCCCCO[N+](=O)[O-])cc1` [Compound 19, N-[4-(4-Nitrooxy-butoxy)-phenyl]-acetamide] had a melting point of 92 to 98 °C.

For `CC(=O)Nc1ccc(OCCCCCO[N+](=O)[O-])cc1` [Compound 13, N-[4-(5-Nitrooxy-pentoxy)-phenyl]-acetamide], in data set [1], the “% INCREASE IN SGPT/ALT LEVEL” value was 11.72 ± 1.4*^,# %. For the same compound, in data set [2], the “% Increase in paw volume Mean ± SEM 2 hr” value was 31.15±1.31% and the “% Increase in paw volume Mean ± SEM 4 hr” value stood at 28.45±1.28%. Moreover, the “liver damage in histopathology” value in data set [3] was “didn't cause any significant damage to the liver; also recorded: no significant damage”. In data set [4], the “cox-2 (ovine) inhibition” value was 32.5%. The “% INHIBITION IN WRITHINGS” value in data set [5] amounted to 61.80±1.69%. The “% INCREASE IN ALP LEVEL” value in data set [6] is 2.85 ± 0.83 %. In data set [7], this compound had an NO serum level of 265.4±2.47 and a serum nitrate/nitrite concentration of 265.4 ± 2.47 µmol/L.

Consider `CC(=O)Nc1ccc(OCCO[N+](=O)[O-])cc1` [Compound 12, N-[4-(2-Nitrooxy-ethoxy)-phenyl]-acetamide], for which the “% INCREASE IN SGPT/ALT LEVEL” value in data set [1] is 27.94 ± 2.7*^,# %. Besides, in data set [2], the “% Increase in paw volume Mean ± SEM 2 hr” value is 32.68±1.45%; the “anti-inflammatory activity (in words)” value is reported as “good anti-inflammatory activity”; the “% Increase in paw volume Mean ± SEM 4 hr” value is 26.44±0.10% and 26.44 ± .10%. Further, the “liver damage in histopathology” value in data set [3] is “Mild ballooning degeneration”. Further, the “cox-2 (ovine) inhibition” value in data set [4] is 21.0%. In addition, the “% INHIBITION IN WRITHINGS” value in data set [5] amounted to 58.35±1.50%. In data set [6], the “% INCREASE IN ALP LEVEL” value is 4.17 ± 0.62 %. In data set [7], this compound returned an NO serum level of 354.2±2.17 and a serum nitrate/nitrite concentration of 354.2 ± 2.17 µmol/L.
